{
  "source": "PubChem BioAssay AID2060510",
  "about": "(Molecular Pharmacology Branch, DTP, NCI, 2025)",
  "tested_on": "439559-082-T-J2-PDC spheroids viability",
  "assay": "Anticancer human tumor 439559-082-T-J2-PDC patient-derived colon adenocarcinoma cell line growth inhibition [GQUAD]",
  "conditions": "for viability, T/C: stronger effect = lower value",
  "description": "DNA G-quadruplex Stabilizer Agents in Combinations in Complex Spheroids\nA high-throughput screen of multi-cell type tumor spheroids was designed to identify active combinations of DNA G-quadruplex stabilizer agents and targeted small molecules. Complex spheroids include a stromal component modeled by human endothelial cells (HUVEC) and fibroblasts modeled by human mesenchymal stem cells (MSCs). The concentration ranges selected for each drug and investigational agent were based upon clinically achievable concentrations if the clinical Cmax of the agent was known.\nCompounds. The drugs and investigational agents: pidnarulex (CX-5461; NSC782164), APTO-253 (NSC789042), BRACO-19 (NSC847499), peposertib (NSC802822), ceralasertib (NSC780249), elimusertib (NSC800525), camonsertib (NSC841442), AZD-1390 (NSC803789), olaparib (NSC753686), talazoparib (NSC767125), ART-558 (NSC835418), sotorasib (NSC818433), MRTX-1133 (NSC836407), SN-38 (NSC673596), topotecan (NSC609699), etoposide (NSC141540), doxorubicin (NSC123127), gemcitabine (NSC613327), 5-fluorouracil (NSC19893), paclitaxel (NSC125973), vemurafenib (NSC761431), panobinostat (NSC761190), R-306465 (JNJ-16241199; NSC773264), adavosertib (NSC754352), TP-3654 (NSC805149), carboplatin (NSC241240), KSQ-4279 (NSC840948), and staurosporine (NSC755774) were obtained from the National Cancer Institute (NCI) Developmental Therapeutics Program Chemical Repository (34). The FDA-approved anticancer drug set is available from the NCI Developmental Therapeutics Program. […] The stock solutions were prepared in dimethyl sulfoxide (DMSO, Sigma-Aldrich, St. Louis, MO, cat. D2650) at 800-fold the tested concentration and stored at -70 degrees C prior to their use. All drugs and investigational agents were tested over a range starting from a high concentration at or near the clinical Cmax and decreasing in half-log increments. If the clinical Cmax for an agent had not been determined, the highest concentration tested was 10 microM.\n2.3 Cell Culture. All cells were maintained in an incubator at 37 degrees C and 5% CO2 with 95% humidity. The PDC lines were cultured according to standard operating procedures established by the NCI PDMR. All PDCs were thawed and cultured in Matrigel-coated flasks prepared with a working solution of 1X Ham's F-12 nutrient mix, without supplementation (Invitrogen, cat. 11765054), 100 U/mL penicillin-streptomycin (Invitrogen, cat. 15140122), and 2.5% Matrigel (Corning Inc., cat. 354248) for the first three passages. The 857933-349-R-J2-PDC line was cultured in 6C/Colon 1B media, which includes advanced DMEM/F-12 (Thermo Fisher Scientific, cat. 12634028), 10 mM HEPES (Thermo Fisher Scientific, cat. 15630080), 1X GlutaMAX supplement (Thermo Fisher Scientific, cat. 35050061), 0.1 mg/mL primocin (InvivoGen, cat. ant-pm-2), 10% defined fetal bovine serum, heat inactivated (HyClone Laboratories Inc., cat. SH30070.03HI), 50% L-WRN conditioned media (ATCC, cat. CRL-3276), 1.25 mM N-Acetyl-L-cysteine (Sigma-Aldrich, cat. A9165), 10 mM nicotinamide (Sigma-Aldrich, cat. N0636), 1X B-27 supplement (Thermo Fisher Scientific, cat. 17504044), 1X N-2 supplement (Thermo Fisher Scientific, cat. 17502048), 10 microM Y-27632 dihydrochloride (Tocris Bioscience, cat. 1254), and 50 ng/mL human EGF recombinant protein (Thermo Fisher Scientific, cat. PHG0311). The 485176-168-R4-J1-PDC line was cultured in Panc media, which includes all 6C/Colon 1B media components plus 100 ng/mL human FGF-10 (Thermo Fisher Scientific, cat. 100-26), 500 nM SB-431542 (Selleckchem, cat. S1067), and gastrin (Tocris, cat. 3006).\n[…]",
  "note": "Where “and” joins values, the source holds several entries; their conditions need not be identical. Equal entries are not always repeated.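 Also: spheroids exposed to the agents for 7 days before readout.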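 For viability, T/C in this document: percent of luminescence signal in DMSO vehicle wells taken as 100% viability.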",
  "data": [
    {"smiles": "COc1ncnc(C2CC2)c1-c1ncc2cnn(Cc3ccc(-c4nc(C(F)(F)F)cn4C(C)C)cc3)c2n1", "values": [
      {"measurement": "viability, T/C", "setting": "compound 0.0316 µM", "value": "100% and 106% and 101%"},
      {"measurement": "viability, T/C", "setting": "compound 0.1 µM", "value": "101% and 109% and 97.2%"},
      {"measurement": "viability, T/C", "setting": "compound 0.316 µM", "value": "100% and 90.9% and 94.3%"},
      {"measurement": "viability, T/C", "setting": "compound 1 µM", "value": "104% and 89% and 94.3%"},
      {"measurement": "viability, T/C", "setting": "compound 3.16 µM", "value": "98.7% and 81.9% and 104%"},
      {"measurement": "viability, T/C", "setting": "compound 10 µM", "value": "98.1% and 57.4% and 89.5%"},
      {"measurement": "IC50", "setting": "curve of compound", "value": "> 10", "unit": "µM"}
    ]},
    {"smiles": "C=CC(=O)N1CCN(c2nc(=O)n(-c3c(C)ccnc3C(C)C)c3nc(-c4c(O)cccc4F)c(F)cc23)C(C)C1", "note": "(stereo not drawn) + Cc1cnc(CNC(=O)c2c(=O)c3ccc(N4CCCN(C)CC4)nc3n3c2sc2ccccc23)cn1", "values": [
      {"measurement": "IC50", "setting": "curve of first compound, second compound 0.0316 µM", "value": "> 10", "unit": "µM"},
      {"measurement": "IC50", "setting": "curve of first compound, second compound 0.1 µM", "value": "> 10", "unit": "µM"},
      {"measurement": "IC50", "setting": "curve of first compound, second compound 0.316 µM", "value": "> 10", "unit": "µM"},
      {"measurement": "IC50", "setting": "curve of first compound, second compound 1 µM", "value": "> 10", "unit": "µM"},
      {"measurement": "IC50", "setting": "curve of first compound, second compound 3.16 µM", "value": "> 10", "unit": "µM"},
      {"measurement": "IC50", "setting": "curve of first compound, second compound 10 µM", "value": "> 10", "unit": "µM"},
      {"measurement": "viability, T/C", "setting": "second compound 0.0316 µM, first compound 0.0316 µM", "value": 116, "unit": "%"},
      {"measurement": "viability, T/C", "setting": "second compound 0.0316 µM, first compound 0.1 µM", "value": 95.1, "unit": "%"},
      {"measurement": "viability, T/C", "setting": "second compound 0.0316 µM, first compound 0.316 µM", "value": 103, "unit": "%"},
      {"measurement": "viability, T/C", "setting": "second compound 0.0316 µM, first compound 1 µM", "value": 110, "unit": "%"},
      {"measurement": "viability, T/C", "setting": "second compound 0.0316 µM, first compound 3.16 µM", "value": 95.6, "unit": "%"},
      {"measurement": "viability, T/C", "setting": "second compound 0.0316 µM, first compound 10 µM", "value": 111, "unit": "%"},
      {"measurement": "viability, T/C", "setting": "second compound 0.1 µM, first compound 0.0316 µM", "value": 99.3, "unit": "%"},
      {"measurement": "viability, T/C", "setting": "second compound 0.1 µM, first compound 0.1 µM", "value": 99.1, "unit": "%"},
      {"measurement": "viability, T/C", "setting": "second compound 0.1 µM, first compound 0.316 µM", "value": 87.3, "unit": "%"},
      {"measurement": "viability, T/C", "setting": "second compound 0.1 µM, first compound 1 µM", "value": 87.9, "unit": "%"},
      {"measurement": "viability, T/C", "setting": "second compound 0.1 µM, first compound 3.16 µM", "value": 93, "unit": "%"},
      {"measurement": "viability, T/C", "setting": "second compound 0.1 µM, first compound 10 µM", "value": 93.2, "unit": "%"},
      {"measurement": "viability, T/C", "setting": "second compound 0.316 µM, first compound 0.0316 µM", "value": 95.2, "unit": "%"},
      {"measurement": "viability, T/C", "setting": "second compound 0.316 µM, first compound 0.1 µM", "value": 92.3, "unit": "%"},
      {"measurement": "viability, T/C", "setting": "second compound 0.316 µM, first compound 0.316 µM", "value": 84.9, "unit": "%"},
      {"measurement": "viability, T/C", "setting": "second compound 0.316 µM, first compound 1 µM", "value": 91.2, "unit": "%"},
      {"measurement": "viability, T/C", "setting": "second compound 0.316 µM, first compound 3.16 µM", "value": 91.1, "unit": "%"},
      {"measurement": "viability, T/C", "setting": "second compound 0.316 µM, first compound 10 µM", "value": 93, "unit": "%"},
      {"measurement": "viability, T/C", "setting": "second compound 1 µM, first compound 0.0316 µM", "value": 73.7, "unit": "%"},
      {"measurement": "viability, T/C", "setting": "second compound 1 µM, first compound 0.1 µM", "value": 83, "unit": "%"},
      {"measurement": "viability, T/C", "setting": "second compound 1 µM, first compound 0.316 µM", "value": 76.1, "unit": "%"},
      {"measurement": "viability, T/C", "setting": "second compound 1 µM, first compound 1 µM", "value": 75.4, "unit": "%"},
      {"measurement": "viability, T/C", "setting": "second compound 1 µM, first compound 3.16 µM", "value": 87.9, "unit": "%"},
      {"measurement": "viability, T/C", "setting": "second compound 1 µM, first compound 10 µM", "value": 75.9, "unit": "%"},
      {"measurement": "viability, T/C", "setting": "second compound 3.16 µM, first compound 0.0316 µM", "value": 76.9, "unit": "%"},
      {"measurement": "viability, T/C", "setting": "second compound 3.16 µM, first compound 0.1 µM", "value": 73, "unit": "%"},
      {"measurement": "viability, T/C", "setting": "second compound 3.16 µM, first compound 0.316 µM", "value": 71.5, "unit": "%"},
      {"measurement": "viability, T/C", "setting": "second compound 3.16 µM, first compound 1 µM", "value": 71.1, "unit": "%"},
      {"measurement": "viability, T/C", "setting": "second compound 3.16 µM, first compound 3.16 µM", "value": 78, "unit": "%"},
      {"measurement": "viability, T/C", "setting": "second compound 3.16 µM, first compound 10 µM", "value": 72.9, "unit": "%"},
      {"measurement": "viability, T/C", "setting": "second compound 10 µM, first compound 0.0316 µM", "value": 59.2, "unit": "%"},
      {"measurement": "viability, T/C", "setting": "second compound 10 µM, first compound 0.1 µM", "value": 74.7, "unit": "%"},
      {"measurement": "viability, T/C", "setting": "second compound 10 µM, first compound 0.316 µM", "value": 75.8, "unit": "%"},
      {"measurement": "viability, T/C", "setting": "second compound 10 µM, first compound 1 µM", "value": 76.2, "unit": "%"},
      {"measurement": "viability, T/C", "setting": "second compound 10 µM, first compound 3.16 µM", "value": 77.1, "unit": "%"},
      {"measurement": "viability, T/C", "setting": "second compound 10 µM, first compound 10 µM", "value": 72.6, "unit": "%"}
    ]},
    {"smiles": "COc1cccc2c1C(=O)c1c(O)c3c(c(O)c1C2=O)CC(O)(C(=O)CO)CC3OC1CC(N)C(O)C(C)O1", "note": "(stereo not drawn)", "values": [
      {"measurement": "viability, T/C", "setting": "compound 0.0316 µM", "value": "95.9% and 97.8% and 102%"},
      {"measurement": "viability, T/C", "setting": "compound 0.1 µM", "value": "95.7% and 105% and 90.6%"},
      {"measurement": "viability, T/C", "setting": "compound 0.316 µM", "value": "88.5% and 84.1% and 81.5%"},
      {"measurement": "viability, T/C", "setting": "compound 1 µM", "value": "78.7% and 80.2% and 79.4%"},
      {"measurement": "viability, T/C", "setting": "compound 3.16 µM", "value": "61.8% and 57.9% and 63.3%"},
      {"measurement": "viability, T/C", "setting": "compound 10 µM", "value": "51.2% and 41.3% and 43.4%"},
      {"measurement": "IC50", "setting": "curve of compound", "value": "> 10 µM and 5.6 µM and 7.09 µM"}
    ]},
    {"smiles": "CC1COCCN1c1cc(C2(O)CC3CCC(C2)O3)c2cnn(-c3ccn[nH]3)c2n1", "note": "(stereo not drawn)", "values": [
      {"measurement": "viability, T/C", "setting": "compound 0.0316 µM", "value": "88.9% and 93.8% and 110%"},
      {"measurement": "viability, T/C", "setting": "compound 0.1 µM", "value": "94.8% and 93.7% and 78.8%"},
      {"measurement": "viability, T/C", "setting": "compound 0.316 µM", "value": "68.1% and 75.7% and 73.3%"},
      {"measurement": "viability, T/C", "setting": "compound 1 µM", "value": "52.4% and 55.8% and 50.7%"},
      {"measurement": "viability, T/C", "setting": "compound 3.16 µM", "value": "39% and 40.9% and 32.5%"},
      {"measurement": "viability, T/C", "setting": "compound 10 µM", "value": "33.2% and 39.8% and 28.5%"},
      {"measurement": "IC50", "setting": "curve of compound", "value": "1.03 µM and 1.52 µM"}
    ]}
  ]
}
